± gives the expanded uncertainty stated by the source.
Test: wn = mass fraction of the nth substance listed
Conditions: 298.2 K, Pendant drop shape

CCCC[N+](CCCC)(CCCC)CCCC.[Br-] [tetrabutylammonium bromide] + O
surface tension liquid-gas (w1 = 0.0697): 53.82 ± 1.4 mN/m | surface tension liquid-gas (w1 = 0.1): 50.58 ± 1.3 mN/m | surface tension liquid-gas (w1 = 0.14): 49.72 ± 1.2 mN/m | surface tension liquid-gas (w1 = 0.3): 46.19 ± 1.1 mN/m | surface tension liquid-gas (w1 = 0.4): 44.48 ± 1.2 mN/m
